The values that follow come from US9643953B2, “Substituted benzylpyrazoles” (Bayer Intellectual Property GmbH, priority 2011, dated 2017).

The target of assay [1] is T1, catalytic domain of human Bub1 (amino acids 704-1085) (Homo sapiens, UniProt O43683).
T1 construct: catalytic domain of human Bub1 (amino acids 704-1085); His6 (N); made in house; host or cells: Hi5 insect cells
Description: Bub1 kinase assay (TR-FRET). The class given is biochemical. Conditions: ATP 10 μM, peptide substrate 1 μM, 60 min at 22° C. The protocol: To this end, 100-fold concentrated compound solutions (in DMSO) were previously prepared by serial dilution (1:3.4) of 2 mM stocks in a clear low volume 384-well source microtiter plate (Greiner Bio-One, Frickenhausen, Germany), from which 50 nl of compounds were transferred into a black low volume test microtiter plate from the same supplier. […] The resulting mixture (5 μl final volume) was incubated at 22° C. during 60 min., and the reaction was stopped by the addition of 5 μl of an aqueous EDTA-solution (50 mM EDTA, in 100 mM HEPES pH 7.5 and 0.2% (w/v) bovine serum albumin) which also contained the TR-FRET detection reagents (0.2 μM streptavidin-XL665 [Cisbio Bioassays, Codolet, France] and 1 nM anti-phosho-Serine antibody [Merck Millipore, cat. #35-001] and 0.4 nM LANCE EU-W1024 labeled anti-mouse IgG antibody [Perkin-Elmer, product no. AD0077, alternatively a Terbium-cryptate-labeled anti-mouse IgG antibody from Cisbio Bioassays can be used]). The stopped reaction mixture was further incubated 1 h at 22° C. in order to allow the formation of complexes between peptides and detection reagents. Subsequently, the amount of product was evaluated by measurement of the resonance energy transfer from the Eu-chelate-antibody complex recognizing the Phosphoserine residue to the streptavidin-XL665 bound to the biotin moiety of the peptide. […] IC50 values were calculated by fitting the normalized inhibition data to a 4-parameter logistic equation (Minimum, Maximum, IC50, Hill; Y=Max+(Min−Max)/(1+(X/IC50)Hill)).
On the technique in general: In TR-FRET formats the signal depends on donor and acceptor labels being close together.

For a further assay, the system named is HeLa cell line. Description: Proliferation assay (HeLa cell line).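 Also: crystal violet staining of cell number, absorbance read at 595 nm, compounds tested at 0.001–10 µM, zero-point plate taken as 0% and untreated cells as 100%, four-parameter fit.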
[2] abbreviates: Biological Assay 1: Bub1 kinase assay median IC50, TR-FRET.
[3] abbreviates: Homo sapiens, HeLa, 96 h, read-out: Biological Assay 2: Proliferation assay (HeLa cell line) median IC50.
[4] abbreviates: TR-FRET, read-out: Biological Assay 1: Bub1 kinase assay median IC50.
Where [5] appears, read: Homo sapiens, HeLa, 96 h, read-out: Biological Assay 2: Proliferation assay (HeLa cell line) median IC50, HeLa cells, 4 days incubation, crystal violet staining.

Read-outs that look alike come from different tables or passages of the source.

T1 sequence (O43683 704-1085): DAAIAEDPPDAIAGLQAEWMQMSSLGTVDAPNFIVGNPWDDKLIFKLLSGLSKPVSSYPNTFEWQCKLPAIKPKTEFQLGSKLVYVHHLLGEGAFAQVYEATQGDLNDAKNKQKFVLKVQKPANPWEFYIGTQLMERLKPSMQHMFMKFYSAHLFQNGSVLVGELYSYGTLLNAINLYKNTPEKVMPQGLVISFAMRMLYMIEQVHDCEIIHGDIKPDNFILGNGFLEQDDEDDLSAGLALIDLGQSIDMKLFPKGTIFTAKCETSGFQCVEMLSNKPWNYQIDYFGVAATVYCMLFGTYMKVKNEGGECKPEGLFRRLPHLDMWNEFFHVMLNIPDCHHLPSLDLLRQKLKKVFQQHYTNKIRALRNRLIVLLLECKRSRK
Description for HeLa cell line: Cultivated tumor cells (cells were ordered from ATCC, except HeLa-MaTu and HeLa-MaTu-ADR, which were ordered from EPO-GmbH, Berlin) were plated at a density of 1000 to 5000 cells/well, depending on the growth rate of the respective cell line, in a 96-well multititer plate in 200 μL of their respective growth medium supplemented 10% fetal calf serum. After 24 hours, the cells of one plate (zero-point plate) were stained with crystal violet (see below), while the medium of the other plates was replaced by fresh culture medium (200 μl), to which the test substances were added in various concentrations (0 μM, as well as in the range of 0.001-10 μM; the final concentration of the solvent dimethyl sulfoxide was 0.5%). The cells were incubated for 4 days in the presence of test substances. Cell proliferation was determined by staining the cells with crystal violet: the cells were fixed by adding 20 μl/measuring point of an 11% glutaric aldehyde solution for 15 minutes at room temperature. After three washing cycles of the fixed cells with water, the plates were dried at room temperature. The cells were stained by adding 100 μl/measuring point of a 0.1% crystal violet solution (pH 3.0). After three washing cycles of the stained cells with water, the plates were dried at room temperature. The dye was dissolved by adding 100 μl/measuring point of a 10% acetic acid solution. Absorption was determined by photometry at a wavelength of 595 nm. The change of cell number, in percent, was calculated by normalization of the measured values to the absorption values of the zero-point plate (=0%) and the absorption of the untreated (0 μm) cells (=100%). The IC50 values were determined by means of a 4 parameter fit.

For the compound `CCOc1cc(F)c(Cn2nc(-c3ncc(OCCO)c(Nc4ccncc4)n3)c(C)c2C2CC2)c(F)c1` [Example 2-3-3, 2-({2-[5-cyclopropyl-1-(4-ethoxy-2,6-difluorobenzyl)-4-methyl-1H-pyrazol-3-yl]-4-(pyridin-4-ylamino)pyrimidin-5-yl}oxy)ethanol], the figures for the IC50 (in assay [1] (setting [2]); in the assay with HeLa cell line (setting [3])) were 7.86 nM and 3590 nM, respectively.

Turning to `CCOc1cc(F)c(Cn2nc(-c3ncc(OCC4(CO)COC4)c(Nc4ccncc4)n3)c(C)c2C2CC2)c(Sc2ccccc2)c1` [Example 2-3-9, [3-({[2-{5-cyclopropyl-1-[4-ethoxy-2-fluoro-6-(phenylsulfanyl)benzyl]-4-methyl-1H-pyrazol-3-yl}-4-(pyridin-4-ylamino)pyrimidin-5-yl]oxy}methyl)oxetan-3-yl]-methanol], the IC50 in assay [1] (setting [4]) is 249 nM; in the assay with HeLa cell line (setting [5]), 6460 nM.

With `CCOC(=O)c1cnccc1Nc1nc(-c2nn(Cc3c(F)cc(OCC)cc3F)c(C3CC3)c2C)ncc1OC` [Example 2-6-5, ethyl 4-({2-[5-cyclopropyl-1-(4-ethoxy-2,6-difluorobenzyl)-4-methyl-1H-pyrazol-3-yl]-5-methoxypyrimidin-4-yl}amino)nicotinate], the IC50 in assay [1] (setting [2]) was found to be 27.4 nM.

In the case of `COc1cnc(-c2cc(N(C)C)n(Cc3ccccc3F)n2)nc1Nc1ccncc1` [Example 2-1-2, 2-[5-(dimethylamino)-1-(2-fluorobenzyl)-1H-pyrazol-3-yl]-5-methoxy-N-(pyridin-4-yl)pyrimidin-4-amine], the IC50 is 1150 nM in assay [1] (setting [4]) and over 10000 nM in the assay with HeLa cell line (setting [3]).

`CCOc1cc(F)c(Cn2nc(-c3ncc(OCC4CCC(=O)N4)c(Nc4ccncc4)n3)c(C)c2C2CC2)c(F)c1` (single isomer, unassigned; enantiomer 1) [Example 2-3-6, 5-[({2-[5-cyclopropyl-1-(4-ethoxy-2,6-difluorobenzyl)-4-methyl-1H-pyrazol-3-yl]-4-(pyridin-4-ylamino)pyrimidin-5-yl}oxy)methyl]pyrrolidin-2-one enantiomer 1]: the figures for the IC50 (in assay [1] (setting [4]); with HeLa cell line (setting [5])) were 8.14 nM and 2970 nM, respectively.

`CCOc1cc(F)c(Cn2nc(-c3ncc(OCCCSC)c(Nc4ccncc4)n3)c(C)c2C2CC2)c(F)c1` [Example 2-3-8, 2-[5-cyclopropyl-1-(4-ethoxy-2,6-difluorobenzyl)-4-methyl-1H-pyrazol-3-yl]-5-[3-(methylsulfanyl)propoxy]-N-(pyridin-4-yl)pyrimidin-4-amine]: the IC50 is 13.7 nM in assay [1] (setting [2]) and 2960 nM in the assay on HeLa cell line (setting [3]).

With `CCOc1cc(F)c(Cn2nc(-c3ncc(OCC[S+](C)[O-])c(Nc4ccncc4)n3)c(C)c2C2CC2)c(F)c1` (single isomer, unassigned; enantiomer 1) [Example 2-8-2, 2-[5-cyclopropyl-1-(4-ethoxy-2,6-difluorobenzyl)-4-methyl-1H-pyrazol-3-yl]-5-[2-(methylsulfinyl)ethoxy]-N-(pyridin-4-yl)pyrimidin-4-amine enantiomer 1], the IC50 in assay [1] (setting [4]) came to 3.96 nM.

For the compound `CCOc1cc(F)c(Cn2nc(-c3ncc(OCC4CCC(=O)N4)c(Nc4ccncc4)n3)c(C)c2C2CC2)c(F)c1` (single isomer, unassigned; enantiomer 2) [Example 2-3-7, 5-[({2-[5-cyclopropyl-1-(4-ethoxy-2,6-difluorobenzyl)-4-methyl-1H-pyrazol-3-yl]-4-(pyridin-4-ylamino)pyrimidin-5-yl}oxy)methyl]pyrrolidin-2-one enantiomer 2], the IC50 amounted to 12.1 nM in assay [1] (setting [4]) and 2890 nM in the assay with HeLa cell line (read-out: Biological Assay 2: Proliferation assay (HeLa cell line) median IC50, HeLa cells, 4 days incubation, crystal violet staining).

Compound `CCOc1cc(F)c(Cn2nc(-c3ncc(OC)c(Nc4ccncc4C(=O)O)n3)c(C)c2C2CC2)c(F)c1` [Example 2-11-1, 4-({2-[5-cyclopropyl-1-(4-ethoxy-2,6-difluorobenzyl)-4-methyl-1H-pyrazol-3-yl]-5-methoxypyrimidin-4-yl}amino)nicotinic acid] showed an IC50 in assay [1] (setting [2]) of 26.8 nM.

Regarding `COc1cnc(-c2cc(C3CC3)n(Cc3ccccc3)n2)nc1Nc1ccncc1` [Example 2-1-5, 2-(1-benzyl-5-cyclopropyl-1H-pyrazol-3-yl)-5-methoxy-N-(pyridin-4-yl)pyrimidin-4-amine], the IC50 is 516 nM in assay [1] (setting [4]) and over 10000 nM in the assay with HeLa cell line (setting [3]).

Consider `COc1cnc(-c2nn(Cc3c(F)c(F)c(OCC(F)(F)F)c(F)c3F)c(C3CC3)c2C)nc1Nc1ccncc1` [Example 2-10-2, 2-{5-cyclopropyl-4-methyl-1-[2,3,5,6-tetrafluoro-4-(2,2,2-trifluoroethoxy)benzyl]-1H-pyrazol-3-yl}-5-methoxy-N-(pyridin-4-yl)pyrimidin-4-amine], for which the IC50 in assay [1] (setting [4]) was determined as 61.3 nM; in the assay on HeLa cell line (setting [3]), 5280 nM.

Regarding `COc1ccc(Cn2nc(-c3ncc(OC)c(Nc4ccncc4)n3)cc2C2CC2)cc1` [Example 2-1-8, 2-[5-cyclopropyl-1-(4-methoxybenzyl)-1H-pyrazol-3-yl]-5-methoxy-N-(pyridin-4-yl)pyrimidin-4-amine], the IC50 in assay [1] (setting [4]) is 73.8 nM; with HeLa cell line (setting [3]), over 10000 nM.

The compound `CCOc1cc(F)c(Cn2nc(-c3ncc(OC)c(Nc4ccncc4C#N)n3)c(C)c2C2CC2)c(F)c1` [Example 2-6-4, 4-({2-[5-cyclopropyl-1-(4-ethoxy-2,6-difluorobenzyl)-4-methyl-1H-pyrazol-3-yl]-5-methoxypyrimidin-4-yl}amino)nicotinonitrile] showed an IC50 in assay [1] (setting [2]) of 48.6 nM.

`COc1cnc(-c2nn(Cc3c(Cl)cccc3Cl)c(C3CC3)c2C)nc1Nc1ccncc1` [Example 2-1-9, 2-[5-cyclopropyl-1-(2,6-dichlorobenzyl)-4-methyl-1H-pyrazol-3-yl]-5-methoxy-N-(pyridin-4-yl)pyrimidin-4-amine]: the IC50 in assay [1] (setting [4]) is 5.76 nM; with HeLa cell line (setting [3]), over 10000 nM.

Turning to `CCOc1cc(F)c(Cn2nc(-c3ncc(OCS(N)(=O)=O)c(Nc4ccncc4)n3)c(C)c2C2CC2)c(F)c1` [Example 2-3-5, 1-({2-[5-cyclopropyl-1-(4-ethoxy-2,6-difluorobenzyl)-4-methyl-1H-pyrazol-3-yl]-4-(pyridin-4-ylamino)pyrimidin-5-yl}oxy)methanesulfonamide], the IC50 in assay [1] (setting [2]) is 5.55 nM; in the assay on HeLa cell line (setting [3]), 3200 nM.

Consider `CCOc1cc(F)c(Cn2nc(-c3ncc(C#N)c(Nc4ccncc4)n3)c(C)c2C2CC2)c(F)c1` [Example 2-6-3, 2-[5-cyclopropyl-1-(4-ethoxy-2,6-difluorobenzyl)-4-methyl-1H-pyrazol-3-yl]-4-(pyridin-4-ylamino)pyrimidine-5-carbonitrile], for which the IC50 in the assay on HeLa cell line (setting [3]) worked out at 9350 nM.

Turning to `CCOc1cc(F)c(Cn2nc(-c3ncc(O)c(Nc4ccncc4)n3)c(C)c2C2CC2)c(F)c1` [Example 2-2-1, 2-[5-cyclopropyl-1-(4-ethoxy-2,6-difluorobenzyl)-4-methyl-1H-pyrazol-3-yl]-4-(pyridin-4-ylamino)pyrimidin-5-ol], in assay [1] (setting [2]), the IC50 amounted to 6.2 nM.

`COc1cnc(-c2nn(Cc3c(F)cc(OC(F)F)cc3F)c(C3CC3)c2C)nc1Nc1ccncc1` [Example 2-10-1, 2-{5-cyclopropyl-1-[4-(difluoromethoxy)-2,6-difluorobenzyl]-4-methyl-1H-pyrazol-3-yl}-5-methoxy-N-(pyridin-4-yl)pyrimidin-4-amine]: the IC50 in assay [1] (setting [4]) amounted to 6.79 nM.

`COc1ccc(Cn2nc(-c3ncc(OC)c(Nc4ccncc4)n3)c(C)c2C2CC2)cc1` [Example 2-6-1, 2-[5-cyclopropyl-1-(4-methoxybenzyl)-4-methyl-1H-pyrazol-3-yl]-5-methoxy-N-(pyridin-4-yl)pyrimidin-4-amine]: the IC50 in assay [1] (setting [4]) is 15.1 nM.

With `CCOc1cc(F)c(Cn2nc(-c3ncc(OCC[S+](C)[O-])c(Nc4ccncc4)n3)c(C)c2C2CC2)c(F)c1` (single isomer, unassigned; enantiomer 2) [Example 2-8-3, 2-[5-cyclopropyl-1-(4-ethoxy-2,6-difluorobenzyl)-4-methyl-1H-pyrazol-3-yl]-5-[2-(methylsulfinyl)ethoxy]-N-(pyridin-4-yl)pyrimidin-4-amine enantiomer 2], in assay [1] (setting [4]), the IC50 stood at 6.17 nM.

As to `COc1cnc(-c2nn(Cc3c(F)cc(C4CC4)cc3F)c(C3CC3)c2C)nc1Nc1ccncc1` [Example 2-7-1, 2-[5-cyclopropyl-1-(4-cyclopropyl-2,6-difluorobenzyl)-4-methyl-1H-pyrazol-3-yl]-5-methoxy-N-(pyridin-4-yl)pyrimidin-4-amine], the IC50 in assay [1] (setting [4]) worked out at 8.62 nM.

`CCOc1cc(F)c(Cn2nc(-c3ncc(OC)c(Nc4ccncc4)n3)c(C)c2N(C)C)c(F)c1` [Example 2-6-2, 2-[5-(dimethylamino)-1-(4-ethoxy-2,6-difluorobenzyl)-4-methyl-1H-pyrazol-3-yl]-5-methoxy-N-(pyridin-4-yl)pyrimidin-4-amine]: in assay [1] (setting [2]), the IC50 was 12.6 nM.
